From patent publication US20210051954A1, “METHOD FOR INCREASING THE RESISTANCE OF A CEREAL PLANT” (BASF AGROCHEMICAL PRODUCTS B.V., priority 2018, published 2021)

Experiments:
Wheat = experiment: % germination in wheat by seed treatment, 21 days after planting; assay type: in vivo; details: 0.5 mg of (la)/plant, 30% FS formulation
From the text: (§1) Watering cycles—The level of stress is created by watering the pots based on the % of pot moisture as measured by wireless probes. Depending on weather conditions the number of cycles vary as needed.
(§2) The % of moisture triggers the watering process independent of the time that it takes to reach this point.
(§3) In “well-watered conditions” or “standard watered conditions”, in pots the % moisture is kept above 80%.
(§4) In “drought conditions”, in the pots re-watering happens at 45% pot moisture.
(§5) “Untreated” means that the seed has not been exposed to the compound I (a).
(§6) The treaments(s) were applied directly over the planted seed at the rates found in the table(s) below. Seeds were then covered and the % rate of germination was calculated at 21 days after planting.
(§7) The % rate of germination was calculated as the number of seeds that emerged divided by the number of seeds planted and presented as as a percentage.
(§8) Seeds were planted in two types of soil (Mineral and Organic) which were free of pest (insects, weeds, or diseases) to avoid interactions with the treatments applied
Example 2: Increase % Germination in Wheat by Seed Treatement

Maize (Corn) = experiment: % germination in maize (corn) by drench treatment, 21 days after planting; assay type: in vivo; details: 30% FS formulation; for % Germination in Mineral soil in Standard conditions: standard watered conditions (moisture above 80%); for % Germination in Organic soil in Draught conditions: drought conditions (re-watering at 45% pot moisture)
From the text: as §1, §2, §3, §4, §5, §6, §7, §8
Example 1: Increase in % of Germination in Maize (Corn) by Drench Treatment

## CN(C(=O)c1ccccc1)c1cccc(C(=O)Nc2c(Br)cc(C(F)(C(F)(F)F)C(F)(F)F)cc2C(F)(F)F)c1F [(la)]
Wheat; mineral soil, standard watered conditions (moisture above 80%)
  % Germination in Mineral soil in Standard conditions: 95%
Wheat; organic soil, drought conditions (re-watering at 45% pot moisture)
  % Germination in Organic soil in Draught conditions: 95%
Wheat; organic soil, standard watered conditions (moisture above 80%)
  % Germination in Organic soil in Standard conditions: 100%
Maize (Corn); 0.5 mg of (la)/plant
  % Germination in Mineral soil in Standard conditions: 100%
  % Germination in Organic soil in Draught conditions: 98%
Maize (Corn); 1 mg of (la)/plant
  % Germination in Mineral soil in Standard conditions: 100%
  % Germination in Organic soil in Draught conditions: 100%
